Assay results: US20260234159A1, “SMALL MOLECULE TREATMENT OF FATTY LIVER DISEASE AND HCC” (SCANDIEDGE THERAPEUTICS AB, priority 2023, published 2026)

What was measured:
Type in all cases: cell-based, human
HepG2 cells [1] = experiment: Mitochondrial membrane potential assay (TMRE); details: 10 μM, one day
Procedure, shortened: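 HepG2 cells treated with compounds at the chosen concentration and time, then assayed with kits for TMRE, autophagy, DCFDA ROS or lipid peroxidation. Fluorescence intensity measured from ROI in images or by microplate reader in triplicate (GFP Ex480/Em530 nm, RFP Ex549/Em574 nm).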

HepG2 cells [2] = experiment: Invasion assay (transwell); details: Homo sapiens, HepG2, 24 hr, read-out: invasiveness reduced by
Procedure, shortened: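 HepG2 cells (100,000) in serum-free medium with compounds placed on collagen-coated 8 μm transwell membranes, with 10% FBS medium below as attractant. After one day at 37 °C, cells fixed in formaldehyde and stained with crystal violet. Invaded cells on the outer membrane imaged and counted.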

[3] = MTT cell viability after one week steatosis (ranking of target molecules); details: human, HepG2 cells (wild type); HepG2, 10 μM, one week steatosis induce media, MTT; Control 100.00
Procedure, shortened: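 HepG2 cells, 60,000 per well, kept one week in steatosis medium (high-glucose DMEM, 10 μg/ml insulin, 10 μM T0901317) with 10 μM compound. Medium changed at day 0, 3 and 5. Viability measured by MTT.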

HepG2 cells [4] = experiment: FACs analysis with PI staining (cell cycle); details: for Cell population G0/G1 / Cell population G2/M / Cell population S: PI FACs, 10 μM, 2 days; for cells in the G2/M phase: histogram plots
Protocol: 400,000 HepG2 cells were seeded in a 6-well plated and treated with 10 μM of the compounds for 2 days. Cells were fixed with 70% ethanol and stained with 50 μg/ml PI. Prepared cells were analysed using BD FACS Canto II Flow Cytometry system at PE-A channel 10,000 cells per group. The data was histogram plotted with BD FACSDiva 9.0.

Row | Structure (SMILES) | mitochondrial membrane potential (HepG2 cells [1]) | inhibition at 1 µM (HepG2 cells [2]) | viability at 1 week, 10 µM [3] | cell cycle distribution / arrest (HepG2 cells [4]; PI FACS) | Cell population G0/G1 (HepG2 cells [4]) | Cell population G2/M (HepG2 cells [4]) | Cell population S (HepG2 cells [4]) | cells in the G2/M phase (HepG2 cells [4])
1 | N#Cc1c(NC(=O)c2cccc3ccccc23)sc2c1CCCC2 [JNK-IN-5A, N-(3-cyano-4,5,6,7-tetrahydrobenzo[b]thiophen-2-yl)-1-naphthamide] | significantly decreased | 24.9% | 56.4% | significant G2/M cell cycle arrest | 22.7 | 67.3 | 4.4 | –
2 | COc1ccc(C(=O)Nc2sc3c(c2C#N)CCCCC3)cc1OC [PKL-A135, N-(3-cyano-5,6,7,8-tetrahydro-4H-cyclohepta[b]thiophen-2-yl)-3,4-dimethoxy-benzamide] | significantly decreased | 29.5% | 63.2% | – | 5.5 | 79.9 | 2.0 | around 89%
3 | COc1ccccc1NC(=O)N1CCc2c(sc(NC(=O)c3cccc4ccccc34)c2C#N)C1 [PKL-A152] | – | – | 43.9% | – | – | – | – | –
4 | N#Cc1c(NC(=O)c2cccc3ccccc23)sc2c1CCN(C(=O)Nc1ccccc1OC(F)(F)F)C2 [PKL-A159] | significantly decreased | 77.8% | 2.33% | – | 30.5 | 62.4 | 3.3 | –
5 | N#Cc1c(NC(=O)c2cccc3ccccc23)sc2c1CCN(CC(=O)Nc1cccc(Br)c1)C2 [PKL-B171] | significantly decreased | 21.4% | 22% | – | 6.6 | 79.1 | 3.6 | around 89%
